Values joined by “and” are separate entries in the source; they are usually repeats but may differ in a detail not shown here. Identical values can stand only once. Like-named read-outs stand apart in the source and are kept apart here.
Experiments:
Assay type in all cases: cell-based
[1] = test system: Calu-1 cells stably expressing Halo–p53 WT (FL)–mCherry–2A–mTagBFP2-V5; assay: CellTiter-Glo cell viability; settings: for mean_norm: Cell_Type WT; for replicates (raw CTG signal): p53_construct WT, CTG 4 days
Procedure: (§1) Cells were plated in 384-well plates (typically 1,500 cells per well) with varying concentrations of compounds, with a total volume of 50 μl per well. CTG reagent was added (25 μl) to the solutions, mixed and read out using an EnVision 2105 multimode plate reader.

[2] = test system: Calu-1 cells stably expressing Halo–p53-Y220C (FL)–mCherry–2A–mTagBFP2-V5; assay: CellTiter-Glo cell viability; settings: Cell_Type Y220C
Procedure: as §1

[3] = test system: Calu-1 cells stably expressing Halo–p53-R273H (FL)–mCherry–2A–mTagBFP2-V5; assay: CellTiter-Glo cell viability; settings: CTG 4 days; for replicates (raw CTG signal): p53_construct Mut
[4] = CellTiter-Glo cell viability; settings: human, p53_construct Mut, CTG 4 days, read-out: mean (normalized viability)

SMILES: CC[C@@H]1C(=O)N(C)c2cnc(Nc3ccc(C(=O)NC4CCN(C)CC4)cc3OC)nc2N1C1CCCC1 [BI2536]
- mean_norm ([1]; Concentration 0.00976562): 0.9965
- mean_norm ([1]; Concentration 0.0195312): 0.9819
- mean_norm ([1]; Concentration 0.0390625): 0.9464
- mean_norm ([1]; Concentration 0.078125): 0.9231
- mean_norm ([1]; Concentration 0.15625): 0.8923
- mean_norm ([1]; Concentration 0.3125): 0.9222
- mean_norm ([1]; Concentration 0.625): 0.8706
- mean_norm ([1]; Concentration 1.25): 0.9152
- mean_norm ([1]; Concentration 2.5): 0.732
- mean_norm ([1]; Concentration 5): 0.654
- replicates (raw CTG signal) ([1]; Compound_conc 0.0488281): 244635 and 211925 and 234768 and 234225
- replicates (raw CTG signal) ([1]; Compound_conc 0.0976562): 273323 and 237458 and 247150 and 303994
- replicates (raw CTG signal) ([1]; Compound_conc 0.195312): 238397 and 225982 and 259666 and 218737
- replicates (raw CTG signal) ([1]; Compound_conc 0.390625): 236109 and 227126 and 240832 and 277749
- replicates (raw CTG signal) ([1]; Compound_conc 0.78125): 245303 and 237908 and 252002 and 245374
- replicates (raw CTG signal) ([1]; Compound_conc 1.5625): 272283 and 224772 and 244085 and 261410
- replicates (raw CTG signal) ([1]; Compound_conc 3.125): 243376 and 233836 and 240215 and 246677
- replicates (raw CTG signal) ([1]; Compound_conc 6.25): 186650 and 172938 and 193716 and 217878
- replicates (raw CTG signal) ([1]; Compound_conc 12.5): 153573 and 146180 and 148955 and 165621
- replicates (raw CTG signal) ([1]; Compound_conc 25): 156770 and 147371 and 141939 and 149390
- replicates (raw CTG signal) ([1]; Compound_conc 50): 121176 and 111722 and 112653 and 125709
- replicates (raw CTG signal) ([1]; Compound_conc 100): 91299 and 91521 and 110253 and 107241
- mean_norm ([2]; Concentration 0.00976562): 1.033
- mean_norm ([2]; Concentration 0.0195312): 1.042
- mean_norm ([2]; Concentration 0.0390625): 1.012
- mean_norm ([2]; Concentration 0.078125): 1.001
- mean_norm ([2]; Concentration 0.15625): 1.013
- mean_norm ([2]; Concentration 0.3125): 0.9845
- mean_norm ([2]; Concentration 0.625): 0.8987
- mean_norm ([2]; Concentration 1.25): 0.7731
- mean_norm ([2]; Concentration 2.5): 0.741
- mean_norm ([2]; Concentration 5): 0.654
- differential proliferation effect ([3]; Calu-1 p53 WT versus p53-R273H): lacked a differential proliferation effect
- replicates (raw CTG signal) ([3]; Compound_conc 0.0488281): 197890 and 183273 and 187583 and 162992
- replicates (raw CTG signal) ([3]; Compound_conc 0.0976562): 191053 and 161144 and 203266 and 199816
- replicates (raw CTG signal) ([3]; Compound_conc 0.195312): 176045 and 169600 and 186049 and 169525
- replicates (raw CTG signal) ([3]; Compound_conc 0.390625): 185229 and 162171 and 189977 and 157434
- replicates (raw CTG signal) ([3]; Compound_conc 0.78125): 218482 and 178554 and 204635 and 180452
- replicates (raw CTG signal) ([3]; Compound_conc 1.5625): 174155 and 148473 and 186714 and 171263
- replicates (raw CTG signal) ([3]; Compound_conc 3.125): 194944 and 176651 and 192942 and 172246
- replicates (raw CTG signal) ([3]; Compound_conc 6.25): 144484 and 119258 and 155344 and 132872
- replicates (raw CTG signal) ([3]; Compound_conc 12.5): 123471 and 113233 and 124855 and 101499
- replicates (raw CTG signal) ([3]; Compound_conc 25): 102356 and 92186 and 120326 and 90854
- replicates (raw CTG signal) ([3]; Compound_conc 50): 87813 and 79696 and 71081 and 71223
- replicates (raw CTG signal) ([3]; Compound_conc 100): 63459 and 73795 and 72267 and 61765
- viability at 4 days ([4]; Compound_conc 0.0488281): 112%
- viability at 4 days ([4]; Compound_conc 0.0976562): 115%
- viability at 4 days ([4]; Compound_conc 0.195312): 107%
- viability at 4 days ([4]; Compound_conc 0.390625): 106%
- viability at 4 days ([4]; Compound_conc 0.78125): 119%
- viability at 4 days ([4]; Compound_conc 1.5625): 104%
- viability at 4 days ([4]; Compound_conc 3.125): 113%
- viability at 4 days ([4]; Compound_conc 6.25): 84.3%
- viability at 4 days ([4]; Compound_conc 12.5): 70.7%
- viability at 4 days ([4]; Compound_conc 25): 62%
- viability at 4 days ([4]; Compound_conc 50): 47.3%
- viability at 4 days ([4]; Compound_conc 100): 41.4%
